# According to patent publication US20040048807A1, “Angiogenesis inhibitors” (priority 2000, published 2004):
# Columns and labels:
# KB/TP cells = assay: TP-dependent liver metastasis after injection of tumor cells into the spleen; type: in vivo, mouse; conditions: for number of metastatic nodules in liver: KB/TP cell into spleen, 4 weeks, Balb/nude mouse
# Protocol: A Balb/nude mouse of 7-8 weeks age is anesthetized by Nembutal (pentobarbital) and abdomen is slightly incised so as to observe the spleen. 1×10^5 numbers of KB/CV cells or KB/TP cells used in Example 2 is injected into the spleen. After one minute, the spleen is excised and the incised position is sutured. 2-deoxy-L-ribose (100 mg/kg/day) is injected to subcutaneous by two times (morning and evening) every day or one time every other day. To the control group, same amount of physiological saline is injected. After 4 weeks from therapy starting, abdomen is incised, the liver is excised and the number of metastatic nodules are counted. […] The number of metastatic lesions of KB/TP cell is obviously larger than those of KB/CV cell.
# [1] = test system: KB cells overpressing TP (KB/TP); assay: Millipore chamber angiogenesis assay, chamber with KB cells implanted dorsal subcutaneously in mouse; type: in vivo; conditions: for number of angiogenesis (longer than 3 mm, zig-zag pattern): 100 mg/kg/day into abdominal cavity every 12 hours for 4 days, male BALB/c mouse
# Protocol: KB cells overpressing TP (KB/TP) prepared by transfection of […] into KB cells and TP-negative KB cells (KB/CV) prepared by transfection of an empty vector are rinsed by phosphate buffered saline PBS for two times, each 1×10^5 numbers are contained into a Millipore chamber (10 mm diameter, 2 mm thickness, pore size of filter is 0.22 μm) and inserted into dorsal subcutaneous of a male BALB/c mouse of 6-7 weeks age. 2-deoxy-L-ribose (100 mg/kg/day) is administered into abdominal cavity every 12 hours for 4 days. After 4 days from the implanting, the Millipore chamber is removed, and numbers of angiogenesis (longer than 3 mm and showing zig-zag pattern) were counted using a microscope. Results by microscope observation are shown in FIG. 2 (picture A, B, C and D). The number of angiogenesis by KB/TP cell (B) is 4.33 and that of KB/CV cell (B) is 2.67. When 2-deoxy-L-ribose is administereded, that of KB/TP cell (D) becomes to 2.83 and that of […] becomes to 2.83.
# [2] = test system: BAE cell (endothelial cells of bovine aorta); assay: Chemotaxis of BAE cells (collagen-coated chamber, MTT method); type: cell-based; conditions: 2DDR 10 μM + 2DLR 100 μM versus 2DDR 10 μM alone; DMEM + 1% FCS; incubation 4.5 hours
# Protocol: The experimental results of the effect of 2-deoxy-L-ribose on the chemotaxis of BAE cell (endothelial cells of bovine aorta) are shown in FIG. 1. The numbers of inoculated cell 400000, incubation 4.5 hours Chamber coated by type 1 collagen: MTT method From left side, 1: DMEM+1% FCS (fetal calf serum) 2: 1+bFGF (angiogenesis factor) 10 ng/mL, 3: 1+2DDR (2-deoxy-D-ribose) 1 μM 4: 1+2DDR 10 μM 5: 1+2DDR 100 μM 6: 1+2DDR 10 μM+2DLR100 μM The effect of 2DLR ([…]) is obvious from the comparison between the date 4 and 6.
smiles,measurement,setting,value
O=CC[C@@H](O)[C@@H](O)CO [2-deoxy-L-ribose],suppression of TP-dependent metastasis of tumor from spleen to liver,"KB/TP cells; 100 mg/kg/day subcutaneous, overall conclusion",perfectly suppressing the TP-dependent metastasis of tumor from spleen to liver
same,number of metastatic nodules in liver,KB/TP cells; 100 mg/kg/day subcutaneous one time every other day,smaller than the number of metastatic nodules of KB/CV cell
same,number of metastatic nodules in liver,KB/TP cells; 100 mg/kg/day subcutaneous two times (morning and evening) every day (LR),smaller than the number of metastatic nodules of KB/CV cell
same,suppression of the angiogenesis by TP,"[1]; 100 mg/kg/day into abdominal cavity for 4 days, overall conclusion",perfectly supressing the angiogenesis by TP
same,"number of angiogenesis (longer than 3 mm, zig-zag pattern)",[1]; KB/TP cell (D),2.83
same,"number of angiogenesis (longer than 3 mm, zig-zag pattern)",[1]; KB/TP cell (E) as printed,2.83
same,effect on the chemotaxis of BAE cell,[2],obvious
